The record followed here is patent publication US11674967B2, “Method of identifying potential inhibitors of APO TNFα trimers” (UCB BIOPHARMA SRL, priority 2015, dated 2023).

Molecules are shown by their SMILES.

One may read the kon as a measure of how fast the partners come together. A high value points to fast association.

The target in experiment [1] is T1, TNFα (Homo sapiens, UniProt P01375). Briefly: Surface plasmon resonance kinetics of compound binding to immobilised TNFα. The procedure: Surface plasmon resonance was used to measure the association rate, the dissociation rate and the affinity of the compounds of formulae (3) and (15) for TNFα (FIGS. 12A and B). For the purpose of this study a Biacore T100/T200 was used.
TNFα was immobilised at pH5 to a level of 5-8 KRU onto a CMS sensor in HBS-P buffer (10 mM HEPES pH 7.4, 0.15 M NaCl, 0.005% Surfactant P20, BIAcore, GE Healthcare). The TNFα was then equilibrated in HBS-P with 5% DMSO for at least 5 hours. The samples were diluted from 10 mM stocks into DMSO matched buffer and left to solubilise for at least 5 hours. The flow rate was […].
This assay was performed by adding 4 or 5 concentrations of compound starting from a highest concentration of 25 μM for compound of formula (3) and 1 μM for compound of formula (15) and then serially diluting this sample. Background subtraction binding curves were analysed using the BIAevaluation software following standard procedures. Binding, affinity and kinetic parameters were determined using Biacore software. The kinetic data were fitted using the levenberg marquardt algorithm.
Target sequence in this assay (P01375 77-233 limits assumed): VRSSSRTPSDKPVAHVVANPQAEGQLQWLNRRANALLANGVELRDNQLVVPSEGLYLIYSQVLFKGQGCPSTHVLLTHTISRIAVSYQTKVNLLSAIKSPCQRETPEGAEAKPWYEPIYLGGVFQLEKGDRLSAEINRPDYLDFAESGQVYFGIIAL

Experiment [2] concerns the target T2, human TNFα trimer (Homo sapiens, UniProt P01375).
T2 construct: His6Smt-tag (N, cleaved yes); made in house; host or cells: E. coli (vector pEMB54)
Briefly: RMSD of crystal structure of compound-bound TNFα trimer to Reference Structure Compound 34. The conditions noted are these: Cα atoms of β-sheet residues, all three subunits, PyMOL. The procedure:
Cells were pre-cultured at 37° C. in rich media, induced with the addition of 0.1% arabinose and allowed to express overnight at 25° C. in vector pEMB54. This vector introduces a cleavable N-terminal His6Smt-tag. The cells were lysed and purified by Ni-NTA chelate chromatography. The fusion protein was eluted with buffer containing imidazole and cleaved by the addition of protease. The final cleaved TNFα protein was purified by a subtractive Ni chelate chromatography step to remove the fusion tag and further purified by size exclusion chromatography to remove the remaining impurities. The final TNFα product was typically concentrated to 20.0 mg/ml and flash frozen in liquid nitrogen.
Purified human TNF[…] (20.0 mg/ml, VC 2043) was diluted to 4-7 mg/ml in 10 mM HEPES pH 7.5, 150 mM NaCl buffer followed by overnight incubation at 4° C. with 0.3-0.5 mM compound (1-2 molar excess). The TNF[…] compound complexes were crystallized by sitting drop vapor diffusion by mixing 0.5 μl of complex with 0.5 μl of 21.44% PEG 3350, 100 mM Tris, pH 9.0 (UCB1474433); or 22.0% PEG 3350, 100 mM glycine, 100 mM Tris, pH 8.5 (UCB1480595); or 25.6% PEG 3350, 100 mM Tris, pH 8.3, 3% xylitol (UCB5143079) or other formulation with varying precipitant concentration or additives over 100 μl of the same crystallization solution. Other formulations for other compounds include a range of PEG 3350 of 8-28%. Other PEG-like additives include PEG 1000 (8-18%) or PEG 2000 (10-13%). Other additives include MPD (5-13%) or 200 mM NaCl. Other buffers include 100 mM Hepes (pH 7-8), 100 mM Tris or bis-Tris (pH 6.7-9.0). Other non-PEG 3350 crystallization solutions consist of PEG 2000 (14-19%), 100 mM Hepes, pH 8, 25 mM arginine; or 17% PEG 10000, 200 mM ammonium acetate, 100 mM bis-Tris, pH 5.5; or 30% PEG 2000 MME, 100 mM sodium acetate, 100 mM Mes, pH 6.5.
Crystals were briefly soaked in ethylene glycol and/or vitrified directly in liquid nitrogen for data collection.
X-ray diffraction data were collected from a synchrotron source at a wavelength, most frequently, of 0.976484 Å and recorded on CCD detector. […] The structure of the human TNF[…] (VC 2043) complexed with compound was solved by molecular replacement using Phaser with input model of 1TNF. […] Iterative manual model building using Coot (Emsley and Cowtan, 2004) and Refmac (Murshudov et al., 1997) continued until R and Rfree converged. […] The resolution of the structures was most frequently around 2.15 Å.
Root mean squared deviation (RMSD) calculations were carried out to ascertain the distance of each of the crystal structures of distorted TNFα trimer to a reference structure.
RMSD calculations were done using the program PyMOL (www.pymol.org). In this example version 1.7. was used. The cmd.rms PyMOL command was used with defined pairs of atoms. The atoms used were the backbone Ca's of certain residues within the β-strands of TNFα. The residue numbers used are shown below:
These residue numbers are those within the published structure of TNFα with PDB code 1A8M and within the distorted TNFα trimer structures of this invention. The residue numbers are also according to the sequence of SEQ ID NO:36. The residues in each of the three chains with the TNFα structures, (labelled A, B, and C according to our instructions) were used.
The command cmd.rms was used with the following arguments:
rms=cmd.rms(“(moving)”, “(target)”, matchmaker=4, quiet=0, cycles=0)
where “(moving)” is the selection of atoms in a given TNFα structure and “(target)” is the selection of equivalent atoms within the reference structure.
The RMSD was calculated for each structure against all others. The “representative structure” or “Reference Structure” was chosen to be the one with the lowest sum RMSD to all others—the structure “Compound 34” or “Compound34.pdb”.
Reference Structure (Compound 34) and Query Structure (Compound 64) were overlaid (see FIG. 17 with Reference Structure emboldened) by: • 1. […]

Experiment [3] relates to TNFR2. Kind of experiment: Membrane TNF - TNFR2 signalling (NS0-mTNF cells with expanded primary human T cells). It counts as cell-based. As to conditions: compound bound to membrane TNFα on NS0 cells. The procedure:
A murine B cell line (NS0-mTNF) stably expressing non-cleavable human membrane TNF due to a mutation at the TACE cleavage site was used to trigger TNFR2 signalling in PHA-L and IL-2 expanded primary human T cells. […] TNFR1 was also present on these cells but was blocked using a UCB mouse anti-human-TNFR1 antibody 5R16.
NS0-mTNF cells were cultured with 10 μM NCEs for 1 hour to allow binding of Compounds to membrane TNF. T cells were then mixed with the NS0-mTNF cells and following a brief spin to allow cell-cell contact, cells were incubated for 5 min and then lysed in lysis buffer. […] First TRAF-2 recruitment to the TNFR2 receptor was measured in Co-immunoprecipitation experiments as a measure of membrane proximal signalling. After lysis of cells TNFR2 was isolated from the lysate using polyclonal goat anti-human TNFR2 antibodies followed by protein G sepharose bead purification. TNFR2 associated TRAF-2 was then measured in immunoblots after running the purified TNFR2 preparation on a SDS-PAGE. In addition, the whole cell lysate was also sampled for the presence of pNFκB using SDS-PAGE and pNFκB specific immunoblots.
• PBMC from 3 three different donors were cultured in 6 well plates with 10×10^6 cells per well in 5 ml of RPMI1640 supplemented with 10% FCS, 1% human serum, HEPES GlutaMAX, 25 U/ml hIL-2 (Roche) and 2 μg/ml PHA-L (Sigma) to grow out T cells • after 3 days cells were resuspended and cultured in 75 cm^2 flasks with the same media as above, but lacking the PHA-L • growth of culture was monitored and media was changed every 3 days.
This is a 2× solution • prepare 500 μl of 10×10^6 NS0-wt cells • After 1 h add 500 μl human T cells (50×10^6 cells/test) in human media at 37° C. T cells were preincubated for 15 min @37° C. with 50 μg/ml 5R16 anti-TNFR1 Fab-PEG to block signalling via TNFR1 prior adding to the NS0 cells. […]

Experiment [4] has as its target T1, TNFα. Briefly: Meso Scale Discovery (MSD) assay of TNFα binding to plate-coated TNFR-ECD. The conditions noted are these: single point, 100 μM, 5% DMSO. The arrangement: purchased R&D Systems. As for the experimental part: 384 well uncoated plates (standard binding) Meso Scale Discovery plates (MSD) were coated overnight with the extracellular domain of TNFR (TNFR-ECD) (10 μl, 1 ug/mL in PBS). To ensure even distribution plates were centrifuged at 1000 rpm for 2 minutes. The plates were then sealed and stored at +4° C. overnight.
The wells of the plates were then washed three times in 50 μl phosphate buffered saline pH 6.5 (PB) with 0.05% Tween 20 (wash buffer), and then blocked with 50 μl 2% BSA. The plates were then incubated at room temperature on a shaker (600 rpm) for 2 hours. After this incubation plates were washed (3×50 μl wash buffer per well). During the blocking incubation, compounds of formulae (3) and (15) were pre-incubated with TNF (R&D Systems) prior to addition to the pre-blocked and washed MSD plates. For a single point assay as shown in FIG. 2A the compounds were assayed at a final concentration of 100 μM (5% final v/v DMSO). […]
The plates were then washed (3×50 μl wash buffer per well), followed by the addition of 50 μl MSD Read buffer T plus surfactant (diluted 1 in 2 in H2O) and read on a SECTOR Imager 6000.
For single point assays percentage inhibition was calculated using a control sample without compound.
For EC50s determination results were calculated by standard means using a 4 parameter logistic model (sigmoidal dose response model).
Target sequence in this assay (P01375 77-233 limits assumed): as above
Target sequence in this assay (P19438 30-211 partner limits assumed): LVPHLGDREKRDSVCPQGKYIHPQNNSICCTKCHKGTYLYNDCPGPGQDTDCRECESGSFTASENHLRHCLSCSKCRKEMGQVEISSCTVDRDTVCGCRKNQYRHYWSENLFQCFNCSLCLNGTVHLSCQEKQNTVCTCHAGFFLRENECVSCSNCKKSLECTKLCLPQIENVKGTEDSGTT

T2 sequence (P01375 with tags, fused parts or gaps): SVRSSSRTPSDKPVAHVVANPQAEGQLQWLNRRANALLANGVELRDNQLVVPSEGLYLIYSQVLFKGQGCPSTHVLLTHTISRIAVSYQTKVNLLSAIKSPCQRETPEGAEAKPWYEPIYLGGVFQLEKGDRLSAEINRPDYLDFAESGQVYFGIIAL

Regarding `O=C1CCCN1c1cccc(OCc2nc3ccc(-c4ccc(=O)[nH]c4)cc3n2Cc2ccccc2OC(F)F)c1` [Compound 39], in experiment [1], the kon came to 5470 M⁻¹ s⁻¹. Further, the “RMSD (Å) with Compound 34” value in experiment [2] turned out to be 0.22 Å. The “TNFR2 specific membrane proximal (TRAF-2 recruitment to TNFR2) and downstream (pNFκB) signalling” value in experiment [3] is “does not impair”.
As to `Cc1nc2ccc(-c3ccc(N4CCNCC4)nc3)cn2c1Cc1ccccc1OC(F)F` [Compound 43], the “RMSD (Å) with Compound 34” value in experiment [2] is 0.36 Å. The “TNFR2 specific membrane proximal (TRAF-2 recruitment to TNFR2) and downstream (pNFκB) signalling” value in experiment [3] is “does not impair”.
In the case of `Cc1nc2ccc(-c3cnc(N4CCNC(=O)CC4)nc3)cn2c1C(C)c1ccccc1OC(F)F` (stereo not shown) [Compound 57], the “RMSD (Å) with Compound 34” value in experiment [2] was determined as 0.30 Å.
Turning to `CS(=O)(=O)c1ccc(-c2ccc3nc4n(c3c2)C(c2ccccc2OC(F)F)CC4)cc1` (stereo not shown) [Compound 61], in experiment [2], the “RMSD (Å) with Compound 34” value was determined as 0.28 Å.
With `CS(=O)(=O)c1ccc(Cc2nc3ccc(-c4ccc(S(C)(=O)=O)cc4)cc3n2Cc2ccccc2OC(F)F)cc1` [Compound 62], the “RMSD (Å) with Compound 34” value in experiment [2] is listed as 0.16 Å.
With `Cc1nc2cc(F)c(-c3cnc(N4CC(O)(C(F)(F)F)C4)nc3)cn2c1[C@@H](O)c1ccccc1OC(F)F` [Compound 64, 1-[5-[3-[(S)-[2-(difluoromethoxy)phenyl]-hydroxy-methyl]-7-fluoro-2-methyl-imidazo[1,2-a]pyridin-6-yl]pyrimidin-2-yl]-3-(trifluoromethyl)azetidin-3-ol], the “RMSD (Å) with Compound 34” value in experiment [2] is given as 0.22 Å.
For the compound `Cc1cc2occ(CN(C)CCN(C)Cc3cn(-c4cccc(C(F)(F)F)c4)c4ccccc34)c(=O)c2cc1C` [SPD-304], in experiment [4], the “% inhibition of TNFα binding to the TNF receptor” value is “+80%”.
